Reference: ChEMBL document CHEMBL3639306, “1H-imidazo[4,5-c]quinolines” (2014)

Molecular target: T1, 3-phosphoinositide-dependent protein kinase 1 (Homo sapiens, UniProt O15530)
T1 sequence (O15530 whole entry): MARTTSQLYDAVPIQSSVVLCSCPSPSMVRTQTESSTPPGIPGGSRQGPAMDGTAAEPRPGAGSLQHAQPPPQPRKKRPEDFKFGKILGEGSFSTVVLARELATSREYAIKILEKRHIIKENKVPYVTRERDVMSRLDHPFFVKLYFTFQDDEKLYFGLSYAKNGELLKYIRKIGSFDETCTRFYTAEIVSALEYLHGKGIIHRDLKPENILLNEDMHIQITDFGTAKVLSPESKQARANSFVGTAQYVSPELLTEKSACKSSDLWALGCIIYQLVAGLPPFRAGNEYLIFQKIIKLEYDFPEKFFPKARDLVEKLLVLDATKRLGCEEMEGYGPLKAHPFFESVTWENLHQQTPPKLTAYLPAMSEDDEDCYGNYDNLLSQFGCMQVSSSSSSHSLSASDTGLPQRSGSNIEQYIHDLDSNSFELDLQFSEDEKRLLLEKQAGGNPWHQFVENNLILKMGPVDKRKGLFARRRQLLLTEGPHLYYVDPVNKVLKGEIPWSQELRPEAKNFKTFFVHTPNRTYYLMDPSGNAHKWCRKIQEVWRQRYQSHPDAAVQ
Assay: Kinase Assay: Recombinant human PDK1 enzyme (aa 52-556) linked at its N-terminal end to His6 is isolated from baculovirus-infected insect cells. Purified enzyme may be obtained for example from the University of Dundee, Scotland. The following components are combined in a well of a 96-well round-based dish (Greiner bio-one, No. 650101): 1. 15 uL of compound to be tested in varying concentrations (e.g. starting at 10 uM, and diluted in steps of 1:5) in APT buffer (50 mM Tris/Cl pH7.5; 0.05% beta -mercaptoethanol; 10 mM Mg-acetate; 0.0166% Tween 20; 3.33% DMSO) 2. 15 uL His6-PDK1 (aa 52-556) 3.33 ng/well) and PDKtide (KTFCGTPEYLAPEVRRE […]), synthesised by Pepceuticals Limited, Nottingham, United Kingdom; 25 uM final concentration); His6-PDK1 and PDKtide are together diluted accordingly in assay buffer (50 mM tris pH 7.5, 0.05% beta -mercaptoethanol, 10 mM Mg-acetate); PDKtide is present in this mixture as an 83.3 uM solution.

IC50 | SMILES
111 nM | Cc1nc2cnc3ccc(C#CCNC(=O)c4cc(Cl)nn(Cc5ccc(F)c(F)c5)c4=O)cc3c2n1[C@H]1CCCN(C)C1
14 nM | Cn1c(CCO)nc2cnc3ccc(C#CCNC(=O)c4cncn(Cc5ccc(F)c(F)c5)c4=O)cc3c21

SMILES | IC50
O=C(NCC#Cc1ccc2ncc3nc[nH]c3c2c1)c1cccn(Cc2ccc(F)c(F)c2)c1=O | 4 nM
